Converted amounts (≈) assume the structure as drawn. Blank lines part the entries; values can stand above or below the compound they belong to. Starred links: 1 amine or outer side, 2 acyl side, 3 side chain; linkers in the order of their positions; H or OH if unused. Non-standard residues stand in square brackets, D forms with d. Residues, ends and D or L forms follow the SMILES beside them. X2 = CN([C@@H](Cc1cccc(-c2cccc(-c3ccccc3)c2)c1)C(=O)[*:2])[*:1]; X4 = CN([C@@H](Cc1cccc(-c2ccc(-c3ccccc3)cc2)c1)C(=O)[*:2])[*:1]; NMePhe(3-(3-pyridyl)) = CN[C@@H](Cc1cccc(-c2cccnc2)c1)C(=O)O; X3 = CN([C@@H](Cc1cccc(-c2ccc(Cl)cc2)c1)C(=O)[*:2])[*:1]; NMePhe(3-Ph) = CN[C@@H](Cc1cccc(-c2ccccc2)c1)C(=O)O; X5 = CN([C@@H](Cc1cccc(B(O)O)c1)C(=O)[*:2])[*:1]; Hmp(2R,3S) = CC[C@H](C)[C@@H](O)C(=O)O; NMeVal(β-OH) = CN[C@H](C(=O)O)C(C)(C)O; NMeV = CN[C@H](C(=O)O)C(C)C
How the values were obtained:
Assay type in all cases: functional
Candida parapsilosis [1] = test: Antifungal activity against Candida parapsilosis ATCC 22019 by broth dilution method; conditions: Lodderomyces parapsilosis
Aspergillus flavus [2] = test: Antifungal activity against Aspergillus flavus ATCC 204304 by broth dilution method
[3] = system: Meyerozyma guilliermondii; test: Antifungal activity against Candida guilliermondii ATCC 34134 by broth dilution method
Candida albicans [4] = test: Antifungal activity against Candida albicans ATCC 24433 by broth dilution method
Aspergillus fumigatus [5] = test: Antifungal activity against Aspergillus fumigatus by broth dilution method
Nakaseomyces glabratus = test: Antifungal activity against Candida glabrata ATCC 90030 by broth dilution method
Candida tropicalis [6] = test: Antifungal activity against Candida tropicalis ATCC 90874 by broth dilution method
Aspergillus nidulans = test: Antifungal activity against Emericella nidulans ATCC 96921 by broth dilution method
Clavispora lusitaniae = test: Antifungal activity against Candida lusitaniae ATCC 66035 by broth dilution method
Candida albicans [7] = test: Antifungal activity against Candida albicans ATCC 204276 by broth dilution method
Aspergillus flavus [8] = test: Antifungal activity against Aspergillus flavus ATCC 22546 by broth dilution method
Candida albicans [9] = test: Antifungal activity against Candida albicans by broth dilution method
Candida parapsilosis [10] = test: Antifungal activity against Candida parapsilosis ATCC 90018 by broth dilution method; conditions: Lodderomyces parapsilosis
Pichia kudriavzevii [11] = test: Antifungal activity against Candida krusei ATCC 14243 by broth dilution method
Cryptococcus neoformans = test: Antifungal activity against Cryptococcus neoformans ATCC […] by broth dilution method
[12] = system: Trichophyton mentagrophytes; test: Antifungal activity against Trichophyton mentagrophytes ATCC MYA-4439 by broth dilution method
Aspergillus ochraceus = test: Antifungal activity against Aspergillus ochraceus ATCC 96919 by broth dilution method
Candida tropicalis [13] = test: Antifungal activity against Candida tropicalis ATCC 750 by broth dilution method
Aspergillus candidus = test: Antifungal activity against Aspergillus candidus ATCC 13686 by broth dilution method
Trichophyton rubrum = test: Antifungal activity against Trichophyton rubrum ATCC MYA-4438 by broth dilution method
Candida albicans [14] = test: Antifungal activity against Candida albicans ATCC MYA-2732 by broth dilution method
Rhizopus arrhizus = test: Antifungal activity against Rhizopus oryzae ATCC 11886 by broth dilution method
Saccharomyces cerevisiae = test: Antifungal activity against Saccharomyces cerevisiae ATCC 7754 by broth dilution method
Aspergillus fumigatus [15] = test: Antifungal activity against Aspergillus fumigatus ATCC MYA-32626 by broth dilution method
Pichia kudriavzevii [16] = test: Antifungal activity against Issatchenkia orientalis ATCC 6258 by broth dilution method
Fusarium oxysporum = test: Antifungal activity against Fusarium oxysporum ATCC 48112 by broth dilution method
Candida albicans [17] = test: Antifungal activity against Candida albicans ATCC 90028 by broth dilution method
Aspergillus fumigatus [18] = test: Antifungal activity against Aspergillus fumigatus ATCC 20435 by broth dilution method
Aspergillus niger [19] = test: Antifungal activity against Aspergillus niger ATCC 16888 by broth dilution method
Candida albicans [20] = test: Antifungal activity against Candida albicans ATCC 90029 by broth dilution method
Aspergillus niger [21] = test: Antifungal activity against Aspergillus niger ATCC 64028 by broth dilution method
Aspergillus clavatus = test: Antifungal activity against Aspergillus clavatus ATCC 10058 by broth dilution method
[22] = Ratio of MIC for Aspergillus fumigatus to MIC for Candida albicans
[23] = system: Trichophyton mentagrophytes; test: Antifungal activity against Trichophyton mentagrophytes ATCC 28185 by broth dilution method
Sporothrix schenckii = test: Antifungal activity against Sporothrix schenckii ATCC 14284 by broth dilution method
Candida albicans [24] = test: Antifungal activity against Candida albicans ATCC 10231 by broth dilution method
Aspergillus flavus [25] = test: Antifungal activity against Aspergillus flavus ATCC 64025 by broth dilution method

SMILES: CC[C@H](C)[C@@H]1NC(=O)[C@@H]2CCCN2C(=O)[C@H](Cc2cccc(-c3cccnc3)c2)N(C)C(=O)[C@H](Cc2ccccc2)NC(=O)[C@H](C(C)C)N(C)C(=O)[C@@H]([C@@H](C)CC)OC(=O)[C@H](C(C)(C)O)N(C)C(=O)[C@H](CC(C)C)NC(=O)[C@H](C(C)C)N(C)C1=O (cyclo(F[NMePhe(3-(3-pyridyl))]PI[NMeV]L[NMeVal(β-OH)][Hmp(2R,3S)][NMeV]))
MIC (Candida parapsilosis [1]): 0.06 µg/mL (≈ 0.0509 µM) | MIC (Aspergillus flavus [2]): 1 µg/mL (≈ 0.849 µM) | MIC [3]: 0.03 µg/mL (≈ 0.0255 µM) | MIC (Candida albicans [4]): 0.125 µg/mL (≈ 0.106 µM) | MIC (Aspergillus fumigatus [5]): < 0.94 µg/mL | MIC (Nakaseomyces glabratus): 0.03 µg/mL (≈ 0.0255 µM) | MIC (Candida tropicalis [6]): 0.015 µg/mL (≈ 0.0127 µM) | MIC (Aspergillus nidulans): 0.125 µg/mL (≈ 0.106 µM) | MIC (Clavispora lusitaniae): 0.125 µg/mL (≈ 0.106 µM) | MIC (Candida albicans [7]): 0.03 µg/mL (≈ 0.0255 µM) | MIC (Aspergillus flavus [8]): 2 µg/mL (≈ 1.7 µM) | MIC (Candida albicans [9]): < 0.05 µg/mL | MIC (Candida parapsilosis [10]): 0.03 µg/mL (≈ 0.0255 µM) | MIC (Pichia kudriavzevii [11]): 0.06 µg/mL (≈ 0.0509 µM) | MIC (Cryptococcus neoformans): 0.03 µg/mL (≈ 0.0255 µM) | MIC [12]: 0.5 µg/mL (≈ 0.424 µM) | MIC (Aspergillus ochraceus): 0.25 µg/mL (≈ 0.212 µM) | MIC (Candida tropicalis [13]): 0.03 µg/mL (≈ 0.0255 µM) | MIC (Aspergillus candidus): 8 ng/mL (≈ 0.00679 µM) | MIC (Trichophyton rubrum): 2 µg/mL (≈ 1.7 µM) | MIC (Candida albicans [14]): 0.03 µg/mL (≈ 0.0255 µM) | MIC (Rhizopus arrhizus): > 64 µg/mL | MIC (Saccharomyces cerevisiae): 0.03 µg/mL (≈ 0.0255 µM) | MIC (Aspergillus fumigatus [15]): 2 µg/mL (≈ 1.7 µM) | MIC (Pichia kudriavzevii [16]): 0.06 µg/mL (≈ 0.0509 µM) | MIC (Fusarium oxysporum): > 64 µg/mL | MIC (Candida albicans [17]): 0.015 µg/mL (≈ 0.0127 µM) | MIC (Aspergillus fumigatus [18]): 1 µg/mL (≈ 0.849 µM) | MIC (Aspergillus niger [19]): 0.125 µg/mL (≈ 0.106 µM) | MIC (Candida albicans [20]): 0.5 µg/mL (≈ 0.424 µM) | MIC (Aspergillus niger [21]): 0.03 µg/mL (≈ 0.0255 µM) | MIC (Aspergillus clavatus): 0.03 µg/mL (≈ 0.0255 µM) | Ratio [22]: > 10 | MIC [23]: 1 µg/mL (≈ 0.849 µM) | MIC (Sporothrix schenckii): > 64 µg/mL | MIC (Candida albicans [24]): 1 µg/mL (≈ 0.849 µM) | MIC (Aspergillus flavus [25]): 1 µg/mL (≈ 0.849 µM)

SMILES: CC[C@H](C)[C@@H]1NC(=O)[C@@H]2CCCN2C(=O)[C@H](Cc2cccc(-c3ccccc3)c2)N(C)C(=O)[C@H](Cc2ccccc2)NC(=O)[C@H](C(C)C)N(C)C(=O)[C@@H]([C@@H](C)CC)OC(=O)[C@H](C(C)(C)O)N(C)C(=O)[C@H](CC(C)C)NC(=O)[C@H](C(C)C)N(C)C1=O (cyclo(F[NMePhe(3-Ph)]PI[NMeV]L[NMeVal(β-OH)][Hmp(2R,3S)][NMeV]))
MIC (Aspergillus fumigatus [5]): < 0.94 µg/mL | MIC (Candida albicans [9]): < 0.05 µg/mL | Ratio [22]: > 10

MIC (Aspergillus fumigatus [5]): > 5 µg/mL | MIC (Candida albicans [9]): < 5 µg/mL
SMILES: CC[C@H](C)[C@@H]1NC(=O)[C@@H]2CCCN2C(=O)[C@H](Cc2cccc(-c3cccc(-c4ccccc4)c3)c2)N(C)C(=O)[C@H](Cc2ccccc2)NC(=O)[C@H](C(C)C)N(C)C(=O)[C@@H]([C@@H](C)CC)OC(=O)[C@H](C(C)(C)O)N(C)C(=O)[C@H](CC(C)C)NC(=O)[C@H](C(C)C)N(C)C1=O (cyclo(F[X2]PI[NMeV]L[NMeVal(β-OH)][Hmp(2R,3S)][NMeV]))

SMILES: CC[C@H](C)[C@@H]1NC(=O)[C@@H]2CCCN2C(=O)[C@H](Cc2cccc(-c3ccc(Cl)cc3)c2)N(C)C(=O)[C@H](Cc2ccccc2)NC(=O)[C@H](C(C)C)N(C)C(=O)[C@@H]([C@@H](C)CC)OC(=O)[C@H](C(C)(C)O)N(C)C(=O)[C@H](CC(C)C)NC(=O)[C@H](C(C)C)N(C)C1=O (cyclo(F[X3]PI[NMeV]L[NMeVal(β-OH)][Hmp(2R,3S)][NMeV]))
MIC (Aspergillus fumigatus [5]): < 2.5 µg/mL | MIC (Candida albicans [9]): < 0.5 µg/mL | Ratio [22]: > 10

MIC (Aspergillus fumigatus [5]): > 5 µg/mL | MIC (Candida albicans [9]): < 5 µg/mL
SMILES: CC[C@H](C)[C@@H]1NC(=O)[C@@H]2CCCN2C(=O)[C@H](Cc2cccc(-c3ccc(-c4ccccc4)cc3)c2)N(C)C(=O)[C@H](Cc2ccccc2)NC(=O)[C@H](C(C)C)N(C)C(=O)[C@@H]([C@@H](C)CC)OC(=O)[C@H](C(C)(C)O)N(C)C(=O)[C@H](CC(C)C)NC(=O)[C@H](C(C)C)N(C)C1=O (cyclo(F[X4]PI[NMeV]L[NMeVal(β-OH)][Hmp(2R,3S)][NMeV]))

SMILES: CC[C@H](C)[C@@H]1NC(=O)[C@@H]2CCCN2C(=O)[C@H](Cc2cccc(B(O)O)c2)N(C)C(=O)[C@H](Cc2ccccc2)NC(=O)[C@H](C(C)C)N(C)C(=O)[C@@H]([C@@H](C)CC)OC(=O)[C@H](C(C)(C)O)N(C)C(=O)[C@H](CC(C)C)NC(=O)[C@H](C(C)C)N(C)C1=O (cyclo(F[X5]PI[NMeV]L[NMeVal(β-OH)][Hmp(2R,3S)][NMeV]))
MIC (Aspergillus fumigatus [5]): > 100 µg/mL | MIC (Candida albicans [9]): < 0.05 µg/mL
